Assay results reported in patent US8207345B2, “Tetrahydroquinolines for use as modulators of the mitotic motor protein Eg5” (Merck Patent GmbH, priority 2005, dated 2012).

System: cells
Assay: cell cycle effect (G2/M), appended experiments
Type: cell-based

How did the “maintain cells in the G2/M cell cycle” value turn out when N=C(N)c1ccc(OCCCCCOc2ccc(C(=N)N)cc2)cc1 [pentamidine] was run?
The value was “maintain cells in the G2/M cell cycle”.
